Measured values: ChEMBL document CHEMBL1201862, “PubChem BioAssay data set” (2004)
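Protocol summary: plate cells (96-well), add compound at 5 concentrations, incubate 48 h, interpolate endpoints linearly. GI50 = concentration required for 50% inhibition of growth.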 Calls of active or inactive are those of the source. No stated cut-off is given here; in the data, active = GI50 up to about 1.1 µM and inactive = higher.

Columns and labels:
Assay in all cases: NCI tumour cell line growth inhibition, 48 h
A498 = test system: A498
A549 = test system: A549
ACHN = test system: ACHN
EKVX = test system: EKVX
HT-29 = test system: HT-29
KM12 = test system: KM12
LOX IMVI = test system: LOX IMVI
MOLT-4 = test system: MOLT-4
Malme-3M = test system: Malme-3M
NCI-H522 = test system: NCI-H522
OVCAR-4 = test system: OVCAR-4
SK-MEL-2 = test system: SK-MEL-2
SN12C = test system: SN12C
TK-10 = test system: TK-10
UACC-62 = test system: UACC-62
HCC 2998 = test system: HCC 2998

Measured: GI50

N#CCCOCN(CO)c1nc(N(CO)COCCC#N)nc(N(CO)COCCC#N)n1
inactive: A498 > 100 µM | A549 26.1 µM | ACHN 28.6 µM | EKVX 31.2 µM | HT-29 29.1 µM | KM12 33 µM | LOX IMVI 31.8 µM | MOLT-4 21.9 µM | Malme-3M 24.9 µM | NCI-H522 22.3 µM | OVCAR-4 26.9 µM | SK-MEL-2 19 µM | SN12C 20.4 µM | TK-10 34 µM

CCC(=O)C(C(=O)CC)c1c(OC(=O)c2ccccc2)ccc(O)c1C(=O)OC
inactive: A498 > 100 µM | A549 > 100 µM | ACHN > 100 µM | EKVX > 100 µM | HT-29 > 100 µM | KM12 > 100 µM | LOX IMVI > 100 µM | MOLT-4 72.3 µM | NCI-H522 > 100 µM | OVCAR-4 > 100 µM | SK-MEL-2 > 100 µM | SN12C > 100 µM | TK-10 > 100 µM | UACC-62 > 100 µM

CCOP(=O)(OCC)C1CCCOC1=O (stereo not given)
inactive: A498 > 100 µM | A549 > 100 µM | ACHN > 100 µM | EKVX > 100 µM | HCC 2998 > 100 µM | HT-29 > 100 µM | KM12 > 100 µM | LOX IMVI > 100 µM | MOLT-4 > 100 µM | Malme-3M > 100 µM | OVCAR-4 > 100 µM | SK-MEL-2 > 100 µM | SN12C > 100 µM | TK-10 > 100 µM | UACC-62 > 100 µM

CO/N=C(/C(=O)Nc1c[n+](CC(=O)[O-])cs1)c1csc(N)n1
inactive: A498 > 100 µM | A549 > 100 µM | ACHN > 100 µM | EKVX > 100 µM | HCC 2998 > 100 µM | HT-29 > 100 µM | KM12 > 100 µM | LOX IMVI > 100 µM | MOLT-4 > 100 µM | Malme-3M > 100 µM | NCI-H522 > 100 µM | SK-MEL-2 > 100 µM | SN12C > 100 µM | TK-10 > 100 µM | UACC-62 > 100 µM

CC1OC(OCC2COC(O)(Oc3c(-c4ccc(O)c(O)c4)oc4cc(O)cc(O)c4c3=O)C(O)C2O)C(O)C(O)C1O (stereo not given)
inactive: A498 > 100 µM | A549 > 100 µM | ACHN > 100 µM | EKVX > 100 µM | HCC 2998 > 100 µM | HT-29 > 100 µM | KM12 > 100 µM | LOX IMVI > 100 µM | MOLT-4 > 100 µM | Malme-3M > 100 µM | OVCAR-4 > 100 µM | SN12C > 100 µM | TK-10 > 100 µM | UACC-62 > 100 µM

Cn1c(O)c(C(=O)Nc2cccs2)c(=O)[nH]c1=S
inactive: A498 19.9 µM | A549 19.4 µM | ACHN 12.9 µM | HT-29 18.2 µM | KM12 17.9 µM | LOX IMVI 15.7 µM | MOLT-4 24.7 µM | Malme-3M 16.1 µM | NCI-H522 13.5 µM | OVCAR-4 22.5 µM | SK-MEL-2 16.4 µM | SN12C 17.7 µM | TK-10 31 µM | UACC-62 14.1 µM

COc1cc([N+](=O)[O-])ccc1NC(=O)c1cccc([N+](=O)[O-])c1O
inactive: A498 17.9 µM | A549 21.8 µM | ACHN 12.6 µM | EKVX 29.1 µM | HCC 2998 19 µM | HT-29 25.5 µM | KM12 29.5 µM | LOX IMVI 22.2 µM | MOLT-4 30.9 µM | Malme-3M 7.67 µM | NCI-H522 11.6 µM | OVCAR-4 23.4 µM | SK-MEL-2 17.5 µM | SN12C 14.7 µM | UACC-62 9.2 µM

OCCNCO
inactive: A498 > 100 µM | A549 > 100 µM | ACHN > 100 µM | EKVX > 100 µM | HT-29 > 100 µM | KM12 > 100 µM | LOX IMVI > 100 µM | MOLT-4 > 100 µM | NCI-H522 > 100 µM | OVCAR-4 > 100 µM | SK-MEL-2 > 100 µM | SN12C > 100 µM | TK-10 > 100 µM | UACC-62 > 100 µM

CC(=O)n1c(=O)c2cc3c(=O)n(-c4cccc(C#N)c4)c(=O)c3cc2c1=O
inactive: A498 > 100 µM | A549 > 100 µM | ACHN > 100 µM | EKVX > 100 µM | HCC 2998 > 100 µM | HT-29 > 100 µM | KM12 > 100 µM | LOX IMVI > 100 µM | Malme-3M > 100 µM | NCI-H522 > 100 µM | OVCAR-4 > 100 µM | SK-MEL-2 > 100 µM | SN12C > 100 µM | TK-10 > 100 µM | UACC-62 > 100 µM

CSc1nc2nccnc2c(=O)[nH]1
inactive: A498 > 100 µM | A549 > 100 µM | ACHN > 100 µM | EKVX > 100 µM | HCC 2998 > 100 µM | HT-29 > 100 µM | LOX IMVI > 100 µM | MOLT-4 > 100 µM | Malme-3M > 100 µM | NCI-H522 > 100 µM | OVCAR-4 > 100 µM | SK-MEL-2 > 100 µM | SN12C > 100 µM | TK-10 > 100 µM | UACC-62 > 100 µM

CC1CCC2(NC1)OC1CC3[C@@H]4CC=C5C=CCC[C@]5(C)C4CC[C@]3(C)C1C2C (stereo not given in full)
inactive: A498 69.7 µM | A549 24 µM | ACHN 22.9 µM | EKVX 19.6 µM | HCC 2998 17.2 µM | HT-29 15.1 µM | KM12 18.9 µM | LOX IMVI 17.9 µM | MOLT-4 21.7 µM | Malme-3M 18.5 µM | OVCAR-4 18.2 µM | SK-MEL-2 19 µM | SN12C 27.7 µM | TK-10 15.3 µM | UACC-62 21 µM

COc1ccc(-c2cc(=O)c3c(O)cccc3o2)c(OC)c1OC
inactive: A498 33 µM | A549 26.6 µM | ACHN 61 µM | HCC 2998 > 100 µM | HT-29 > 100 µM | KM12 40.6 µM | LOX IMVI 55.2 µM | MOLT-4 12.9 µM | Malme-3M > 100 µM | NCI-H522 > 100 µM | OVCAR-4 74.5 µM | SK-MEL-2 20.2 µM | SN12C 76.9 µM | TK-10 47.1 µM | UACC-62 > 100 µM

c1ccc(COc2ccc3[nH]c4c5c6ccccc6nc-5c[nH]c4c3c2)cc1
inactive: A498 21.6 µM | A549 17.8 µM | ACHN 17.5 µM | EKVX 17.7 µM | HCC 2998 10.5 µM | HT-29 5.47 µM | KM12 14.7 µM | LOX IMVI 18.7 µM | MOLT-4 7.62 µM | Malme-3M 13.5 µM | NCI-H522 16.7 µM | SK-MEL-2 16.9 µM | SN12C 15.4 µM | TK-10 21.9 µM | UACC-62 19.6 µM
